Laboratory results reported in ChEMBL document CHEMBL1201862, “PubChem BioAssay data set” (2004).
Calls of active or inactive are those of the source.

How the values were obtained:
[1] = target: T1, Corticotropin-releasing factor receptor 2/Corticotropin-releasing factor-binding protein (Homo sapiens, UniProt P24387+Q13324); assay: Dose Response confirmation of uHTS hits for small molecule antagonists of the CRF-binding protein and CRF-R2 receptor complex.; type: functional; conditions: read-out: IC50_Mean
T1 sequence (Q13324 whole entry): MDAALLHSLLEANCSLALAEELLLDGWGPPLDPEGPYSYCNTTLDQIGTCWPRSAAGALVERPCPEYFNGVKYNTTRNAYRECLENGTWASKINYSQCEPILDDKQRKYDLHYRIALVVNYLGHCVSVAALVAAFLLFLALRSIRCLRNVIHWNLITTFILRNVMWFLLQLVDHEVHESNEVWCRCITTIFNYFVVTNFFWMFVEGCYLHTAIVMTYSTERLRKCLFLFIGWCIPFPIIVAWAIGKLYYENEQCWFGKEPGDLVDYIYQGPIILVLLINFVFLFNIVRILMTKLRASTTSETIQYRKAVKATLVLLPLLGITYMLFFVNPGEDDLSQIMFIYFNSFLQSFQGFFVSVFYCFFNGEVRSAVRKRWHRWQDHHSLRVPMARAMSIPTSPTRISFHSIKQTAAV
T1 sequence (P24387 whole entry): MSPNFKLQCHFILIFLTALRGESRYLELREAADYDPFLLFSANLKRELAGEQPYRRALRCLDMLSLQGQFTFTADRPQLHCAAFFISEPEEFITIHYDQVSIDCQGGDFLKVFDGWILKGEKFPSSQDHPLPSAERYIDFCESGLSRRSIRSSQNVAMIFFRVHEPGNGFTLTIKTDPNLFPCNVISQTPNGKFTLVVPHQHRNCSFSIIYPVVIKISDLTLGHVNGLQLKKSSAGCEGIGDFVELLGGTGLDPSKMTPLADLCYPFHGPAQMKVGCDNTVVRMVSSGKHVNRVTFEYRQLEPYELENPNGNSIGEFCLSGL

[2] = target: T1, Corticotropin-releasing factor receptor 2/Corticotropin-releasing factor-binding protein; assay: activators of CRF receptor 2 with binding protein – uHTS hits, confirmation (AID 602473); type: functional; conditions: read-out: EC50_Mean
[3] = target: Luciferin 4-monooxygenase (Photinus pyralis, UniProt P08659); assay: inhibition of purified Photinus pyralis luciferase – biochemical, luminescence, dose response (AID 1891)
Chain of Luciferin 4-monooxygenase (P08659 whole entry): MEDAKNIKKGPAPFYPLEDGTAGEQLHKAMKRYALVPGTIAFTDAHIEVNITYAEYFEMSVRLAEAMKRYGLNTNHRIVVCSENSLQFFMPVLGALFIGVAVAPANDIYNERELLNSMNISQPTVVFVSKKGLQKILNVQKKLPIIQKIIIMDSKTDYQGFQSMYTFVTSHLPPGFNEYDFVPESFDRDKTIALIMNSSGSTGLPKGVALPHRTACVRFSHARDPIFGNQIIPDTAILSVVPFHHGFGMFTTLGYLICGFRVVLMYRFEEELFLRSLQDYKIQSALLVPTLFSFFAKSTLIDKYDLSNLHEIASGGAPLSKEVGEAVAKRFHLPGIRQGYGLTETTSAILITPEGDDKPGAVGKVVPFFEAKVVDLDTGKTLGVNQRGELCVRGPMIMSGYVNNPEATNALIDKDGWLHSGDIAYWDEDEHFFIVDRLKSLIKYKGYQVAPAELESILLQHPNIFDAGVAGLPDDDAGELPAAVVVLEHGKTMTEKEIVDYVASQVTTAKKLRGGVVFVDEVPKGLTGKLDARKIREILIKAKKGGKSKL

[4] = Luminescence Cell-Based Dose Confirmation HTS to Identify Inhibitors of Platelet Dense Granule Release. [Related pubchem assays: 1663 (Primary HTS), 1678 (Summary of Project)]; type: functional
Cytochrome P450 2C19 = Cytochrome P450 2C19 (Homo sapiens, UniProt P33261); assay: Cytochrome panel assay with activity outcomes. Panel member name: p450-cyp2c19 Compounds with AC50 equal or less than 10 uM are considered active; type: functional
Chain of Cytochrome P450 2C19 (P33261 whole entry): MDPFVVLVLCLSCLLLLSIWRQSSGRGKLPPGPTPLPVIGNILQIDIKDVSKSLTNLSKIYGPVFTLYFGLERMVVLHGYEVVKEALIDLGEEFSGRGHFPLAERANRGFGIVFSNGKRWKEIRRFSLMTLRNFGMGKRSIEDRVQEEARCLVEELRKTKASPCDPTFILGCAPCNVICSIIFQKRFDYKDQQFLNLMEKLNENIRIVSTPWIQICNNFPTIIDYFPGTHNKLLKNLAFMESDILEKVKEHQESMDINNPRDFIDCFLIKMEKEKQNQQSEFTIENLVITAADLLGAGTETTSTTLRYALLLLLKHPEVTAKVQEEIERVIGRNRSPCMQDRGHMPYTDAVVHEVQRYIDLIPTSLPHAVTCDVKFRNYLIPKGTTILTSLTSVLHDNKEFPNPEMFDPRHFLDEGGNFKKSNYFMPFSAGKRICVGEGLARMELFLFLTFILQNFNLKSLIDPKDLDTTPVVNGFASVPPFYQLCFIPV

[5] = tested on: Streptococcus sp. 'group A'; assay: Streptococcus pyogenes SK(-)GAS viability under kanamycin – luminescence, BacTiterGlo, confirmation, counter-screen for streptokinase expression inhibitor project, dose response (AID 1900); type: functional, organism-based
Streptokinase A = target: T2, Streptokinase A (Streptococcus pyogenes serotype M1, UniProt P10520); assay: viability-normalized secreted streptokinase activity reduction – plasminogen activation absorbance, OD405, dose response (AID 1914); type: functional, Streptococcus pyogenes M1 GAS;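 further: secreted streptokinase activity via plasminogen activation per viability signal from cell pellet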
T2 sequence (P10520 whole entry): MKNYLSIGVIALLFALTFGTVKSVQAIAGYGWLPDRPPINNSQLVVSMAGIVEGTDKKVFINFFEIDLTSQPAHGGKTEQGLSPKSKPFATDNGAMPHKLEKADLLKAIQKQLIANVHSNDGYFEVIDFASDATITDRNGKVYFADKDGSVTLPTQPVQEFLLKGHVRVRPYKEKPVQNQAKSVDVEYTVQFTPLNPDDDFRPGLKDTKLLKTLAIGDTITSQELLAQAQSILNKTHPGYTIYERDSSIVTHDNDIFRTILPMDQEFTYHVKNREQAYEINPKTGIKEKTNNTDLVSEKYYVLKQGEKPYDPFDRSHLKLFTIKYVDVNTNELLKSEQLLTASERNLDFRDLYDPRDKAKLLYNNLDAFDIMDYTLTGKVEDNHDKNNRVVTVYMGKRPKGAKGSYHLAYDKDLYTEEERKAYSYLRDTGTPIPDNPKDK

Streptococcus = assay: GAS UMAA2166 growth inhibition – luminescence, BacTiterGlo, counter-screen for streptokinase expression inhibitor project, dose response (AID 1915); type: functional, organism-based;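 further: potency for reduction of bacterial viability or growth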
Cytochrome P450 1A2 = target: T3, Cytochrome P450 1A2 (Homo sapiens, UniProt P05177);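 further: PubChem cytochrome P450 panel assay, CYP1A2 panel member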
T3 sequence (P05177 whole entry): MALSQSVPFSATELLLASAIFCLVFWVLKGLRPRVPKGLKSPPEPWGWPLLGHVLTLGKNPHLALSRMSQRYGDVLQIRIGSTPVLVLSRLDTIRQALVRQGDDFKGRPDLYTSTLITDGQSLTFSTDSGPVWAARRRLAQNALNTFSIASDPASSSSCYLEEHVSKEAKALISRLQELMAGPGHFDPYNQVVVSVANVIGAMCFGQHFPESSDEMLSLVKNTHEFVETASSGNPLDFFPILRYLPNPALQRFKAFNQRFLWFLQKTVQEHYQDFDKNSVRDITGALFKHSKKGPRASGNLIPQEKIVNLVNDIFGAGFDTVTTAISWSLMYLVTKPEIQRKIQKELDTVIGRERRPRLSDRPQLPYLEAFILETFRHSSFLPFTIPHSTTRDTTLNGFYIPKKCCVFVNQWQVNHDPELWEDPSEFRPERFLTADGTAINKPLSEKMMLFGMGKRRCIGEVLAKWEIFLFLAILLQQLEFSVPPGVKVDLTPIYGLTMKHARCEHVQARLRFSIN

For `O=C(CCOc1ccccc1)Nc1ccc([N+](=O)[O-])cc1`, the IC50 [1] was > 47.1 µM (inactive) and the EC50 [2] was > 53 µM (inactive).
In the case of `Cc1c(C(=O)N2CCCC2)sc(NC(=O)c2ccc(Cl)cc2)c1C#N`, the EC50 [3] is reported as > 112 µM (not active) and the EC50 [4] is reported as > 112 µM (not active).
With `CC(C)S(=O)(=O)c1csc(C(=O)Nc2ccc(F)cc2)c1N` the EC50 [3] was 2.33 µM (active) and the EC50 [4] was < 0.701 µM (active).
In the case of `NC(=O)NC(=O)COC(=O)c1ccc2c(c1)C(=O)N(Cc1ccccc1)C2=O`, the EC50 [3] is reported as > 112 µM (not active) and the EC50 [4] is reported as > 112 µM (not active).
With `CCCCCCCCCOC(=O)C[n+]1csc(CCO)c1C` the IC50 [1] was > 47.1 µM (inactive) and the EC50 [2] was > 53 µM (inactive).
For `C=CCc1cc(/C=C2\C(=N)N3N=C(CC(=O)N4CCOCC4)SC3=NC2=O)cc(OC)c1O`, the EC50 [2] was 6.76 µM (active).
For `Cc1cc(C)c2c(SCc3ccc(Cl)cc3Cl)nc(N)nc2n1`, the AC50 (Cytochrome P450 2C19; read-out: AC50) was 1 µM (inconclusive).
In the case of `O=C1CSC(c2cn(-c3ccccc3)nc2-c2ccc3c(c2)OCCO3)N1CCN1CCOCC1` (stereo not given), the EC50 [3] is reported as > 112 µM (not active) and the EC50 [4] is reported as > 112 µM (not active).
With `S=C(NCc1ccc(Cl)c(Cl)c1)Nc1ccc2c(c1)OCO2` the IC50 [1] was > 47.1 µM (inactive) and the EC50 [2] was > 53 µM (inactive).
For `CCOCc1cc(CN2CCCC(CNC(=O)c3ccco3)C2)ccc1OC` (stereo not given), the IC50 [1] was > 47.1 µM (inactive) and the EC50 [2] was > 53 µM (inactive).
For `Cc1ccc(SC(C)C(=O)Nc2ccccc2C(=O)N2CCOCC2)cc1` (stereo not given), the EC50 [3] was > 112 µM (not active) and the EC50 [4] was > 112 µM (not active).
In the case of `CCOC(=O)CCCNC(=O)c1cncc(Br)c1`, the AC50 (Cytochrome P450 2C19; read-out: AC50) is reported as 39.8 µM (inconclusive).
In the case of `COc1ccc2c(c1)/C(=C/c1cc(OC)c(OC)c(OC)c1)C(=O)N2`, the IC50 [1] is reported as > 47.1 µM (inactive) and the EC50 [2] is reported as > 53 µM (inactive).
In the case of `COc1ccc(N2C(=O)c3cccc4cccc(c34)C2=O)cc1`, the EC50 [2] is reported as > 53 µM (inactive).
For `CCN1C(=O)C(=O)N(Cc2ccc(OC)c(F)c2)C1=O`, the IC50 [1] was > 47.1 µM (inactive) and the EC50 [2] was > 53 µM (inactive).
In the case of `CSCCC(NC(=O)c1cccc(C)c1)C(=O)NNC(=O)c1cccs1` (stereo not given), the IC50 [1] is reported as > 47.1 µM (inactive) and the EC50 [2] is reported as > 53 µM (inactive).
With `COc1ccc(-c2ccc(CN3C(C)C(=O)N(Cc4cn(Cc5ccco5)nn4)CCS3(=O)=O)cc2)cc1` (stereo not given) the IC50 [1] was > 47.1 µM (inactive) and the EC50 [2] was > 53 µM (inactive).
With `CCNC(=O)C1OC(n2cnc3c(N)ncnc32)C(O)C1O` (stereo not given) the EC50 [4] was < 0.088 µM (active).
With `O=C(NC(Cc1c[nH]c2ccccc12)C(=O)N/N=C/c1cccc2ccccc12)c1cccs1` (stereo not given) the EC50 [5] was 5.65 µM (active), the EC50 (Streptokinase A) was > 150 µM (not active) and the EC50 (Streptococcus) was 39.5 µM (active).
In the case of `CC1C/C(=N\NC(=S)NCc2ccccc2)CC(C)(C)C1` (stereo not given), the EC50 [5] is reported as 6.08 µM (active), the EC50 (Streptokinase A) is reported as > 150 µM (not active) and the EC50 (Streptococcus) is reported as 10.4 µM (active).
In the case of `N[C@@]1(C(=O)O)CN[C@H](C(=O)O)C1`, the AC50 (Cytochrome P450 1A2) is reported as 31.6 µM (inconclusive).
With `N[C@@H](CCCCP(=O)(O)O)C(=O)O` the AC50 (Cytochrome P450 1A2) was 31.6 µM (inconclusive).
For `O=[N+]([O-])c1cc([As](=O)(O)O)ccc1O` [ROXARSONE], the AC50 (Cytochrome P450 2C19) was “inconclusive”.
